# PubChem BioAssay AID180 (DTP/NCI, 2004)
# Where “and” joins values, the source holds several entries; their conditions need not be identical. Equal values may be shown once.
# Tested on: BDF1 mice, Adenocarcinoma 755 s.c., tumor weight T/C
# Test: NCI In Vivo Anticancer Drug Screen. Data for tumor model Adenocarcinoma 755 (subcutaneous) in B6D2F1 (BDF1) mice
# Conditions: endpoint: mean tumor weight, higher = larger tumour
# Description: The antitumor activity of compounds was measured in mice bearing transplantable tumors. Survival or tumor size were measured and the results are expressed as the measurement made in the treated group (T) divided by the measurement made in the vehicle treated control group (C). The tumor model used in this assay is Adenocarcinoma 755 (subcutaneous) in B6D2F1 (BDF1) mice
# [1] = dose: 1.5 mg/kg/injection, schedule: Q01DX011 (ip), vehicle: saline
# [2] = dose: 12.5 mg/kg/injection, schedule: Q01DX011 (ip), vehicle: methylcellulose (MC)
# [3] = dose: 3.0 mg/kg/injection, schedule: Q01DX011 (ip), vehicle: saline
# [4] = dose: 6.0 mg/kg/injection, schedule: Q01DX011 (ip), vehicle: saline
# [5] = dose: 50.0 mg/kg/injection, schedule: Q01DX011 (ip), vehicle: other
# [6] = dose: 100.0 mg/kg/injection, schedule: Q01DX011 (ip), vehicle: carboxymethylcellulose (CMC)
# [7] = dose: 100.0 mg/kg/injection, schedule: Q01DX011 (ip), vehicle: other
# [8] = dose: 200.0 mg/kg/injection, schedule: Q01DX011 (ip), vehicle: other
smiles,measurement,setting,value
O=C(CCl)N1c2ccccc2Oc2cc3ccccc3cc21,T/C,"dose: 4.4 mg/kg/injection, schedule: Q01DX011 (ip), vehicle: methylcellulose (MC)",78 % of control
same,T/C,"dose: 6.6 mg/kg/injection, schedule: Q01DX011 (ip), vehicle: methylcellulose (MC)",62 % of control
same,T/C,"dose: 10.0 mg/kg/injection, schedule: Q01DX011 (ip), vehicle: methylcellulose (MC)",54 % of control
same,T/C,"dose: 14.0 mg/kg/injection, schedule: Q01DX011 (ip), vehicle: methylcellulose (MC)",45 % of control
same,T/C,"dose: 14.0 mg/kg/injection, schedule: Q01DX011 (ip), vehicle: other",120 % of control
same,T/C,"dose: 28.0 mg/kg/injection, schedule: Q01DX011 (ip), vehicle: methylcellulose (MC)",33 % of control
same,T/C,"dose: 28.0 mg/kg/injection, schedule: Q01DX011 (ip), vehicle: other",87 % of control
same,T/C,"dose: 56.0 mg/kg/injection, schedule: Q01DX011 (ip), vehicle: other",61 % of control
same,T/C,"dose: 112.0 mg/kg/injection, schedule: Q01DX011 (ip), vehicle: other",94 % of control
Nc1ncnc2c1cnn2CCCl,T/C,"dose: 1.5 mg/kg/injection, schedule: Q01DX011 (ip), vehicle: methylcellulose (MC)",79 % of control
same,T/C,[1],104 % of control
same,T/C,"dose: 3.1 mg/kg/injection, schedule: Q01DX011 (ip), vehicle: methylcellulose (MC)",31 % of control
same,T/C,"dose: 3.1 mg/kg/injection, schedule: Q01DX011 (ip), vehicle: saline",90 % of control
same,T/C,"dose: 4.0 mg/kg/injection, schedule: Q01DX011 (ip), vehicle: carboxymethylcellulose (CMC)",50 % of control and 65 % of control
same,T/C,"dose: 6.2 mg/kg/injection, schedule: Q01DX011 (ip), vehicle: methylcellulose (MC)",26 % of control and 33 % of control
same,T/C,"dose: 6.2 mg/kg/injection, schedule: Q01DX011 (ip), vehicle: saline",73 % of control
same,T/C,[2],9 % of control
same,T/C,"dose: 12.5 mg/kg/injection, schedule: Q01DX011 (ip), vehicle: saline",25 % of control
same,T/C,"dose: 16.0 mg/kg/injection, schedule: Q01DX011 (ip), vehicle: carboxymethylcellulose (CMC)",35 % of control
CC1CN1P(=O)(N1CCCCC1)N1CC1C (stereo unspecified),T/C,[3],107 % of control and 86 % of control
same,T/C,[4],57 % of control and 71 % of control
same,T/C,"dose: 48.0 mg/kg/injection, schedule: Q01DX011 (ip), vehicle: saline",11 % of control
O=C(NP(=O)(N1CC1)N1CC1)OCc1ccccc1,T/C,"dose: 0.38 mg/kg/injection, schedule: Q01DX011 (ip), vehicle: saline",68 % of control
same,T/C,"dose: 0.75 mg/kg/injection, schedule: Q01DX011 (ip), vehicle: saline",35 % of control
same,T/C,[1],53 % of control
same,T/C,"dose: 2.25 mg/kg/injection, schedule: Q01DX011 (ip), vehicle: other",74 % of control
same,T/C,"dose: 2.25 mg/kg/injection, schedule: Q01DX011 (ip), vehicle: saline",115 % of control
same,T/C,[3],18 % of control and 35 % of control
same,T/C,"dose: 4.5 mg/kg/injection, schedule: Q01DX011 (ip), vehicle: other",83 % of control
same,T/C,"dose: 4.5 mg/kg/injection, schedule: Q01DX011 (ip), vehicle: saline",98 % of control
same,T/C,[4],18 % of control
same,T/C,"dose: 9.0 mg/kg/injection, schedule: Q01DX011 (ip), vehicle: other",52 % of control
same,T/C,"dose: 9.0 mg/kg/injection, schedule: Q01DX011 (ip), vehicle: saline",56 % of control
same,T/C,"dose: 12.0 mg/kg/injection, schedule: Q01DX011 (ip), vehicle: saline",2 % of control
same,T/C,"dose: 18.0 mg/kg/injection, schedule: Q01DX011 (ip), vehicle: other",12 % of control
same,T/C,"dose: 18.0 mg/kg/injection, schedule: Q01DX011 (ip), vehicle: saline",29 % of control
same,T/C,"dose: 24.0 mg/kg/injection, schedule: Q01DX011 (ip), vehicle: saline",1 % of control
O=C1C(Cl)=C(Cl)C(=O)C2=C1C1c3ccccc3C2c2ccccc21,T/C,"dose: 37.0 mg/kg/injection, schedule: Q01DX011 (ip), vehicle: carboxymethylcellulose (CMC)",83 % of control
same,T/C,"dose: 37.5 mg/kg/injection, schedule: Q01DX011 (ip), vehicle: carboxymethylcellulose (CMC)",117 % of control
same,T/C,"dose: 75.0 mg/kg/injection, schedule: Q01DX011 (ip), vehicle: carboxymethylcellulose (CMC)",113 % of control and 114 % of control
same,T/C,"dose: 150.0 mg/kg/injection, schedule: Q01DX011 (ip), vehicle: carboxymethylcellulose (CMC)",89 % of control and 84 % of control
same,T/C,"dose: 300.0 mg/kg/injection, schedule: Q01DX011 (ip), vehicle: carboxymethylcellulose (CMC)",83 % of control
same,T/C,"dose: 325.0 mg/kg/injection, schedule: Q01DX011 (ip), vehicle: carboxymethylcellulose (CMC)",41 % of control
same,T/C,"dose: 400.0 mg/kg/injection, schedule: Q01DX011 (ip), vehicle: carboxymethylcellulose (CMC)",33 % of control
same,T/C,"dose: 600.0 mg/kg/injection, schedule: Q01DX011 (ip), vehicle: carboxymethylcellulose (CMC)",15 % of control
Cc1cc(O)c(C(C)C)cc1S(=O)(=O)O (tested in a mixture with another compound),T/C,"dose: 25.0 mg/kg/injection, schedule: Q01DX011 (ip), vehicle: carboxymethylcellulose (CMC)",78 % of control
same,T/C,"dose: 25.0 mg/kg/injection, schedule: Q01DX011 (ip), vehicle: other",32 % of control
same,T/C,"dose: 50.0 mg/kg/injection, schedule: Q01DX011 (ip), vehicle: carboxymethylcellulose (CMC)",53 % of control
same,T/C,[5],83 % of control
same,T/C,[6],49 % of control
same,T/C,[7],44 % of control
same,T/C,"dose: 200.0 mg/kg/injection, schedule: Q01DX011 (ip), vehicle: carboxymethylcellulose (CMC)",42 % of control
same,T/C,[8],7 % of control
CC(=O)O[C@]1(C(C)=O)CC[C@H]2[C@@H]3C[C@H](C)C4=CC(=O)CC[C@]4(C)[C@H]3CC[C@@]21C,T/C,"dose: 100.0 mg/kg/injection, schedule: Q01DX011 (sc), vehicle: steriod suspending solution",89 % of control
same,T/C,"dose: 300.0 mg/kg/injection, schedule: Q01DX011 (sc), vehicle: steriod suspending solution",78 % of control
OCCn1cnc2c(SCc3ccccc3)ncnc21,T/C,[2],108 % of control
same,T/C,"dose: 25.0 mg/kg/injection, schedule: Q01DX011 (ip), vehicle: methylcellulose (MC)",17 % of control
same,T/C,"dose: 50.0 mg/kg/injection, schedule: Q01DX011 (ip), vehicle: methylcellulose (MC)",3 % of control
same,T/C,"dose: 75.0 mg/kg/injection, schedule: Q01DX011 (ip), vehicle: methylcellulose (MC)",3 % of control
same,T/C,"dose: 100.0 mg/kg/injection, schedule: Q01DX011 (ip), vehicle: methylcellulose (MC)",1 % of control
CC1CCN2CCC(O)C12 (stereo unspecified),T/C,"dose: 7.0 mg/kg/injection, schedule: Q01DX011 (ip), vehicle: carboxymethylcellulose (CMC)",98 % of control
O=C1C(NC(=O)C2CCCCC2)=C(N2CC2)C(=O)C(NC(=O)C2CCCCC2)=C1N1CC1,T/C,"dose: 43.75 mg/kg/injection, schedule: Q01DX011 (ip), vehicle: carboxymethylcellulose (CMC)",48 % of control
same,T/C,"dose: 44.0 mg/kg/injection, schedule: Q01DX011 (ip), vehicle: carboxymethylcellulose (CMC)",67 % of control
same,T/C,"dose: 44.0 mg/kg/injection, schedule: Q01DX011 (ip), vehicle: other",76 % of control
same,T/C,"dose: 87.5 mg/kg/injection, schedule: Q01DX011 (ip), vehicle: carboxymethylcellulose (CMC)",9 % of control and 30 % of control
same,T/C,"dose: 88.0 mg/kg/injection, schedule: Q01DX011 (ip), vehicle: other",21 % of control
same,T/C,[6],104 % of control
same,T/C,"dose: 175.0 mg/kg/injection, schedule: Q01DX011 (ip), vehicle: carboxymethylcellulose (CMC)",12 % of control and 33 % of control
same,T/C,"dose: 175.0 mg/kg/injection, schedule: Q01DX011 (ip), vehicle: other",28 % of control
same,T/C,"dose: 200.0 mg/kg/injection, schedule: Q01DX011 (oral), vehicle: carboxymethylcellulose (CMC)",93 % of control
same,T/C,"dose: 400.0 mg/kg/injection, schedule: Q01DX011 (oral), vehicle: carboxymethylcellulose (CMC)",50 % of control
same,T/C,"dose: 800.0 mg/kg/injection, schedule: Q01DX011 (oral), vehicle: carboxymethylcellulose (CMC)",68 % of control
O=C(Nc1ccc(C2=NCCS2)cc1)c1ccc(C(=O)Nc2ccc(C3=NCCS3)cc2)cc1,T/C,"dose: 30.0 mg/kg/injection, schedule: Q01DX011 (ip), vehicle: methylcellulose (MC)",118 % of control
same,T/C,"dose: 120.0 mg/kg/injection, schedule: Q01DX011 (ip), vehicle: methylcellulose (MC)",121 % of control
CCCCOC(OCCCC)C(OCCCC)OCCCC,T/C,[5],105 % of control
same,T/C,[7],106 % of control
same,T/C,[8],63 % of control
COc1cc(C(=O)O)nc(SC)n1,T/C,"dose: 15.0 mg/kg/injection, schedule: Q01DX011 (ip), vehicle: methylcellulose (MC)",115 % of control
same,T/C,"dose: 31.0 mg/kg/injection, schedule: Q01DX011 (ip), vehicle: methylcellulose (MC)",94 % of control
same,T/C,"dose: 62.0 mg/kg/injection, schedule: Q01DX011 (ip), vehicle: methylcellulose (MC)",88 % of control
same,T/C,"dose: 125.0 mg/kg/injection, schedule: Q01DX011 (ip), vehicle: methylcellulose (MC)",87 % of control
